The results in this text go back to ChEMBL document CHEMBL1201862, “PubChem BioAssay data set” (2004).

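These data come from cells grown in 96-well plates and exposed to compound for 48 hours at five concentrations. Abbreviation: GI50, concentration required for 50% inhibition of growth.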 The source made the active and inactive calls. Cut-off read from the data, not from the text of the source: active = GI50 up to about 1.1 µM and inactive = higher.

What all share (test): NCI-60 cell line screen, 48 h
The test system of assay [1] is EKVX.
In assay [2] the test system is TK-10.
The test system of assay [3] is BT-549.
The subject of assay [4] is HCC 2998.
For assay [5], the system named is CAKI-1.
The test system of assay [6] is UACC-257.
Assay [7] relates to SF-539.
In assay [8] the test system is HCT-116.
Assay [9] concerns KM12.
The subject of assay [10] is NCI-H522.
Assay [11] relates to MCF7.
In assay [12] the test system is SNB-75.
Assay [13] deals with 786-0.
Assay [14] has as its system UACC-62.
Assay [15] concerns SNB-19.
The subject of assay [16] is SK-OV-3.
Assay [17] concerns CCRF-CEM.
The test system of assay [18] is SK-MEL-5.
For assay [19], the system named is HT-29.
Assay [20] deals with LOX IMVI.

Turning to `Fc1ccc(C(OCCN2CCC3CCC(C2)N3C/C=C/c2cccs2)c2ccc(F)cc2)cc1` (stereo not given), the GI50 in [1] is 4.41 µM (inactive); in assay [2], 11.1 µM (inactive); in assay [3], 13.2 µM (inactive); in [4] it was 3.21 µM (inactive); in assay [5], 10.2 µM (inactive); in [6] it was 3.66 µM (inactive). For the same molecule, the GI50 in assay [7] was 10.6 µM (inactive); in [8], 3.45 µM (inactive); in assay [9], 4.44 µM (inactive); in assay [10], 5.02 µM (inactive); in assay [11], 7.69 µM (inactive); in [12] it was 14.7 µM (inactive). For the same molecule, the GI50 is 8.49 µM (inactive) in assay [13]; 11.5 µM (inactive) in [14]; 13.9 µM (inactive) in [15]; 12.9 µM (inactive) in assay [16]; 8.09 µM (inactive) in assay [17]; 3.04 µM (inactive) in assay [18]. Moreover, the figures for the GI50 in assay [19] and in assay [20] were 1.37 µM (inactive) and 6.38 µM (inactive), respectively.
As to `COc1ccc(C2SC(=N)Nc3c2c(C)nn3C(=O)c2ccncc2)cc1OC` (stereo not given), the GI50 in assay [1], in assay [2], in [3], in assay [4], in assay [5] and in assay [6] was > 10 µM (inactive) throughout. The GI50 in [7], in assay [8], in assay [9], in assay [10], in [11] and in assay [12] was > 10 µM (inactive) throughout. The GI50 in assay [13], in [14], in assay [15], in [16], in assay [17] and in assay [18] was > 10 µM (inactive) in each case. The GI50 in [19] and in assay [20] was > 10 µM (inactive) each time.
In the case of `Cc1cccc(C)c1NC(=O)C(=O)C(c1ccccc1Cl)S(=O)(=O)Cc1ccccc1Cl` (stereo not given), the GI50 is > 100 µM (inactive) in assay [1]; > 61.2 µM (inactive) in assay [2]; 35.7 µM (inactive) in assay [3]; > 100 µM (inactive) in assay [4]; 39.3 µM (inactive) in assay [5]; > 100 µM (inactive) in assay [6]. Also, the GI50 was 16 µM (inactive) in [7]; > 82.2 µM (inactive) in assay [8]; > 100 µM (inactive) in assay [9]; > 100 µM (inactive) in assay [10]; > 100 µM (inactive) in assay [11]; 11.2 µM (inactive) in [12]. Besides, the GI50 was 27.7 µM (inactive) in [13]; 31.7 µM (inactive) in assay [14]; 41.5 µM (inactive) in [15]; > 29.4 µM (inactive) in assay [16]; > 100 µM (inactive) in assay [17]; > 100 µM (inactive) in assay [18]. Besides, the GI50 in assay [19] and in assay [20] was > 100 µM (inactive) in each case.
For the molecule `O=[N+]([O-])C1(CO)COC2(OC1)c1ccccc1-c1ccccc12`, the GI50 in assay [1] was > 100 µM (inactive); in assay [2] it was > 100 µM (inactive); in assay [3], > 53.6 µM (inactive); in assay [4], > 100 µM (inactive); in [5], > 100 µM (inactive); in [6], 79.8 µM (inactive). For the same molecule, the GI50 is > 69.3 µM (inactive) in assay [7]; 35.3 µM (inactive) in assay [8]; > 100 µM (inactive) in [9]; 20 µM (inactive) in assay [10]; 48 µM (inactive) in [11]; > 100 µM (inactive) in assay [12]. The GI50 was 63.8 µM (inactive) in [13]; > 100 µM (inactive) in [14]; > 100 µM (inactive) in assay [15]; > 100 µM (inactive) in [16]; 25.2 µM (inactive) in [17]; > 100 µM (inactive) in assay [18]. Also, the GI50 in [19] is > 63.5 µM (inactive); in [20] it was 45.6 µM (inactive).
`Cc1ccc(/C=C/C(=N/NC(=O)N/N=C(/C=C/c2ccc(C)cc2)C(C)(C)CN2CCCCC2)C(C)(C)CN2CCCCC2)cc1`: the GI50 is 2.67 µM (inactive) in assay [1]; 1.74 µM (inactive) in [2]; 2.1 µM (inactive) in assay [3]; 1.77 µM (inactive) in [4]; 2.31 µM (inactive) in assay [5]; 1.72 µM (inactive) in [6]. In addition, the GI50 is 1.77 µM (inactive) in assay [7]; 1.34 µM (inactive) in [8]; 1.64 µM (inactive) in assay [9]; 1.63 µM (inactive) in assay [10]; 1.47 µM (inactive) in [11]; 1.46 µM (inactive) in assay [12]. The GI50 in [13] is 1.39 µM (inactive); in assay [14] it was 2.3 µM (inactive); in assay [15], 2.11 µM (inactive); in [16], 1.77 µM (inactive); in assay [17], 1.3 µM (inactive); in [18], 1.67 µM (inactive). Besides, the GI50 is 0.757 µM (active) in assay [19] and 1.16 µM (inactive) in assay [20].
Regarding `CCCNC(=S)N/N=C(\C)c1ccc(S(=O)(=O)N(C)c2ccccc2)cc1`, the GI50 in assay [1] was 37.8 µM (inactive); in assay [2], 25.5 µM (inactive); in assay [3] it was > 100 µM (inactive); in assay [4] it was > 100 µM (inactive); in assay [5], 24.2 µM (inactive); in assay [6], > 100 µM (inactive). Besides, the GI50 in assay [7] was 5.25 µM (inactive); in [8] it was > 100 µM (inactive); in assay [9], > 100 µM (inactive); in [10], > 100 µM (inactive); in assay [11] it was 57 µM (inactive); in assay [12] it was 17.9 µM (inactive). Also, the GI50 in [13] was 19.3 µM (inactive); in assay [14], > 100 µM (inactive); in [15] it was 39.4 µM (inactive); in [16], 45 µM (inactive); in assay [17], > 31.6 µM (inactive); in [18] it was > 100 µM (inactive). The GI50 in [19] and in assay [20] was > 100 µM (inactive) each time.
For the molecule `CN1c2c(O)nc(N)nc2NCC1CCNc1ccc(C(=O)NC(CCC(=O)O)C(=O)O)cc1` (stereo not given), the GI50 in [1] is 1260 µM (inactive); in assay [2], 1030 µM (inactive); in assay [3], 1440 µM (inactive); in assay [4], 993 µM (inactive); in assay [5] it was 328 µM (inactive); in assay [6] it was 1030 µM (inactive). Besides, the GI50 in assay [7] is 132 µM (inactive); in assay [8], 28.8 µM (inactive); in [9], 916 µM (inactive); in assay [10], 423 µM (inactive); in assay [11], 324 µM (inactive); in assay [12], 553 µM (inactive). For the same molecule, the GI50 in [13] was 4.59 µM (inactive); in [14] it was 133 µM (inactive); in assay [15] it was 1820 µM (inactive); in assay [16], 678 µM (inactive); in assay [17], 62.5 µM (inactive); in assay [18], 1120 µM (inactive). Further, the values for the GI50 in assay [19] and in [20] were 19.6 µM (inactive) and 4.06 µM (inactive), respectively.
